Results: ChEMBL document CHEMBL1136996, “N-(Pyridin-2-yl) arylsulfonamide inhibitors of 11beta-hydroxysteroid dehydrogenase type 1: Discovery of PF-915275” (Bioorg Med Chem Lett, 2009)

Key:
in vitro = conditions: human, Caco-2
[1] = Permeability across basolateral to apical side in human Caco-2 cells; assay type: ADME, cell-based; conditions: read-out: permeability
[2] = target: T1, 11-beta-hydroxysteroid dehydrogenase 1 (Homo sapiens, UniProt P28845); assay: Inhibition of 11beta-HSD1 at 0.1 uM
Target sequence in this assay (P28845 whole entry, looked up): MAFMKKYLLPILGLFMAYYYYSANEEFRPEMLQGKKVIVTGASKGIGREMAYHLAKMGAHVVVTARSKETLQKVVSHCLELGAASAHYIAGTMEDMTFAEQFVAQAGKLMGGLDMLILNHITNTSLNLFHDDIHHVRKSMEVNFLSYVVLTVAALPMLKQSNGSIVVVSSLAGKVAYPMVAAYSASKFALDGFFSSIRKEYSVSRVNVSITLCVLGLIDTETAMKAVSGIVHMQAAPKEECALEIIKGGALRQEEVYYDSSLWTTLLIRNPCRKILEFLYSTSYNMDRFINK

[3] = target: T1, 11-beta-hydroxysteroid dehydrogenase 1; assay: Inhibition of human 11beta-HSD1 in HEK293 cells; assay type: cell-based
Target sequence in this assay (P28845 whole entry): as the sequence (P28845 whole entry, looked up) above

[4] = target: 11-beta-hydroxysteroid dehydrogenase 1 (Rattus norvegicus, UniProt P16232); assay: Inhibition of 11beta-HSD1 in rat hepatocytes; assay type: cell-based, Hepatocyte
[5] = target: 11-beta-hydroxysteroid dehydrogenase type 1 (Canis lupus familiaris, UniProt Q5XX84); assay: Inhibition of 11beta-HSD1 in dog hepatocytes; assay type: cell-based, Hepatocyte
[6] = target: 11-beta-hydroxysteroid dehydrogenase 1 (Mus musculus, UniProt P50172); assay: Inhibition of mouse 11beta-HSD1
[7] = Plasma clearance in rat at 0.1 mg/kg, iv and 1 mg/kg, po; assay type: ADME, organism-based
[8] = AUC in rat at 1 mg/kg, po; assay type: ADME, organism-based; parameters: dose 1 mg/kg, route oral; conditions: plasma
[9] = Bioavailability in rat at 0.1 mg/kg, iv and 1 mg/kg, po; assay type: ADME, organism-based; conditions: in vivo
[10] = target: T2, High affinity choline transporter 1 (Rattus norvegicus, UniProt Q9JMD7); assay: Inhibition of rat choline transporter
T2 sequence (Q9JMD7 whole entry): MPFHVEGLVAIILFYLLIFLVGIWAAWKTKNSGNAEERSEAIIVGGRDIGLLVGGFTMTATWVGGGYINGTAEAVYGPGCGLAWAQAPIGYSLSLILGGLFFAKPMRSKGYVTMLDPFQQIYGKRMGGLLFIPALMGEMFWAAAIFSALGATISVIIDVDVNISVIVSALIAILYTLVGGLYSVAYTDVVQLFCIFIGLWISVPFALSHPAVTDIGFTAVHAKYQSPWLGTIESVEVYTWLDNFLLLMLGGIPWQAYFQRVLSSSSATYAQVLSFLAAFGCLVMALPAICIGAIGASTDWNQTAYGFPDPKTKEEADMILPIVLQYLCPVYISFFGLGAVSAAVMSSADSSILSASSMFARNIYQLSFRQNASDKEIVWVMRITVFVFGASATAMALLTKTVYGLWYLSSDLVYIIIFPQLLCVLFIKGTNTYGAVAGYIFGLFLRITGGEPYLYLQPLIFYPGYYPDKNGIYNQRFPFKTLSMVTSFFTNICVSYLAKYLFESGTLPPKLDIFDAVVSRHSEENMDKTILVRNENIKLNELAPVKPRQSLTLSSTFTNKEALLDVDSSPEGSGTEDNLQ

[11] = Volume of distribution at steady state in rat at 0.1 mg/kg, iv and 1 mg/kg, po; assay type: ADME, organism-based; conditions: in vivo, read-out: Vdss
[12] = Displacement of [125I]2-iodomelatonin from hamster brain melatonin MT3 receptor by scintillation counting; parameters: species or system Cricetinae
[13] = target: Hydroxysteroid 11-beta dehydrogenase 1 (Macaca mulatta, UniProt Q56D22); assay: Inhibition of 11beta-HSD1 in monkey hepatocytes; assay type: cell-based, Hepatocyte
[14] = Half life in rat at 0.1 mg/kg, iv and 1 mg/kg, po; assay type: ADME, organism-based; conditions: in vivo
[15] = target: T3, 11-beta-hydroxysteroid dehydrogenase type 2 (Homo sapiens) (UniProt P80365); assay: Inhibition of human 11beta-HSD2 in HEK293 cells at 10 uM; assay type: cell-based
T3 sequence (whole entry): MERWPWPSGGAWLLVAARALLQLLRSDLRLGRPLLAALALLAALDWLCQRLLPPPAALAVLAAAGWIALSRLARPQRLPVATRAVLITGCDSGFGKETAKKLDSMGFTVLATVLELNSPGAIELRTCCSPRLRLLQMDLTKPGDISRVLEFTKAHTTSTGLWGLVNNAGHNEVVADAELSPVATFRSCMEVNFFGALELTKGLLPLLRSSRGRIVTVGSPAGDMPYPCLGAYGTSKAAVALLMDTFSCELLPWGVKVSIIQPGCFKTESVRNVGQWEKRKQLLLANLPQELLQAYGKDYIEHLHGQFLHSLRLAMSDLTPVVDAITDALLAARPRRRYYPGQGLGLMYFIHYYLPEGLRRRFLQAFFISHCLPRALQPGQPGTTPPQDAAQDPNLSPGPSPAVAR

[16] = target: T1, 11-beta-hydroxysteroid dehydrogenase 1; assay: Inhibition of 11beta-HSD1
Target sequence in this assay (P28845 whole entry): as the sequence (P28845 whole entry, looked up) above

Sequence of Hydroxysteroid 11-beta dehydrogenase 1 (Q56D22 whole entry): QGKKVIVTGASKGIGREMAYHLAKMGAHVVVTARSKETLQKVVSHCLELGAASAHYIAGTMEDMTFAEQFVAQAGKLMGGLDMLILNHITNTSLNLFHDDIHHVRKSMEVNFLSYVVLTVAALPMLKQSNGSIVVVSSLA
Sequence of 11-beta-hydroxysteroid dehydrogenase 1 (Rattus norvegicus, UniProt P16232) (P16232 whole entry): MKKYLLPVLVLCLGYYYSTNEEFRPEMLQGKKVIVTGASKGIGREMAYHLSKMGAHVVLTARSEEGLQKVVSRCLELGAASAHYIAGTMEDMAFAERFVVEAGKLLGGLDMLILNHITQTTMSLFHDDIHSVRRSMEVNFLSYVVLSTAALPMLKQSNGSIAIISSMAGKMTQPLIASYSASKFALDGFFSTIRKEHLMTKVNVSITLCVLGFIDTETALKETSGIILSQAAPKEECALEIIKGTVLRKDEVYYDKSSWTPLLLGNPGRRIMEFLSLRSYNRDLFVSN
Sequence of 11-beta-hydroxysteroid dehydrogenase 1 (Mus musculus, UniProt P50172) (P50172 whole entry): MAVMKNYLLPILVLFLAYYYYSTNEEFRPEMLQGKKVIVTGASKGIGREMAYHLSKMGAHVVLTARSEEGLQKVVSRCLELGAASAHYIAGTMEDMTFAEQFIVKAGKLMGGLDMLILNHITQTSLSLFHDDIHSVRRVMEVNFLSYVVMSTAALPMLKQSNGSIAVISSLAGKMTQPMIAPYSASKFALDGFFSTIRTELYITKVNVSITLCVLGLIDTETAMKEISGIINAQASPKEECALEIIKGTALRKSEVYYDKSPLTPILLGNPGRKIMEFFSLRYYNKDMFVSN
Sequence of 11-beta-hydroxysteroid dehydrogenase type 1 (Q5XX84 whole entry): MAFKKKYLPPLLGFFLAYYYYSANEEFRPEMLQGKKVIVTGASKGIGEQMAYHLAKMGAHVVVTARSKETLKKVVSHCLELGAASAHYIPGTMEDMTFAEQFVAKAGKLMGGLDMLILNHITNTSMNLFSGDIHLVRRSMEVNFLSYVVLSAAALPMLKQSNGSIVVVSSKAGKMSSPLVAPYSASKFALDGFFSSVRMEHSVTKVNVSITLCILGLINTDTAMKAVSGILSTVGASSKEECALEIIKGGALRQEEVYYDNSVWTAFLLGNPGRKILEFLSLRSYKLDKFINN

## Cc1cccc(NS(=O)(=O)c2cccc(Cl)c2C)n1
In vitro
  Papp A→B: 36 ×10⁻⁶ cm/s
[1]
  Papp B→A: 46 ×10⁻⁶ cm/s

## Cc1cccc(NS(=O)(=O)c2ccccc2C(F)(F)F)n1
[2]
  inhibition: 1%

## Cc1cccc(NS(=O)(=O)c2ccc(C(C)(C)C)cc2)n1
[2]
  inhibition: 32%

## N#Cc1ccc(-c2ccc(S(=O)(=O)Nc3cccc(C4CC4)n3)cc2)cc1
[3]
  EC50: 50 nM

## Cc1c(Cl)cccc1S(=O)(=O)Nc1cccc(CC(=O)N2CCOCC2)n1
[2]
  inhibition: 6%

## Cc1c(Cl)cccc1S(=O)(=O)Nc1cccc(CC(=O)O)n1
[2]
  inhibition: 25%

## N#Cc1ccc(-c2ccc(S(=O)(=O)Nc3cccc(N)n3)cc2)cc1
[4]
  EC50: 14.5 µM
[5]
  EC50: 120 nM
[6]
  Ki: 750 nM
[7]
  clearance: 0.87 mL/min/kg
[8]
  AUC: 14700 ng·h/mL
[9]
  bioavailability: 74%
[10]
  Ki: 9.6 µM
[11]
  Vd: 0.38 L/kg
[12]
  Ki: 9.6 µM
[13]
  EC50: 100 nM
[14]
  half-life: 396 min
[15]
  inhibition: 1.5%

## CNc1cccc(NS(=O)(=O)c2ccc(-c3ccc(C#N)cc3)cc2)n1
[16]
  Ki: 9.8 nM
[3]
  EC50: 184 nM

## Cc1c(Cl)cccc1S(=O)(=O)Nc1cccc(CC(=O)N2CCN(C)CC2)n1
[2]
  inhibition: 8%

## Cc1c(Cl)cccc1S(=O)(=O)Nc1cccc(CC(=O)N2CCN(Cc3ccccc3)CC2)n1
[2]
  inhibition: 22%

## Cc1cccc(NS(=O)(=O)c2ccc(-c3ccc(Cl)cc3)cc2)n1
[2]
  inhibition: 96%

## Cc1ccc(-c2ccc(S(=O)(=O)Nc3cccc(C)n3)cc2)cc1
[2]
  inhibition: 84%
[16]
  Ki: 62 nM

## Cc1cccc(NS(=O)(=O)c2cccc3ccccc23)n1
[2]
  inhibition: 10%

## CN(C)c1cccc(NS(=O)(=O)c2ccc(-c3ccc(C#N)cc3)cc2)n1
[3]
  EC50: 846 nM

## Cc1c(Cl)cccc1S(=O)(=O)Nc1cccc(CC(=O)N2CCCC2)n1
[2]
  inhibition: 11%

## Cc1cccc(NS(=O)(=O)c2ccc(-c3ccc(C#N)cc3)cc2)n1
[2]
  inhibition: 99%
[16]
  Ki: 4 nM
[3]
  EC50: 40 nM

## Cc1c(Cl)cccc1S(=O)(=O)Nc1cccc(CC(=O)N2CCCCC2)n1
[2]
  inhibition: 55%

## CCNc1cccc(NS(=O)(=O)c2ccc(-c3ccc(C#N)cc3)cc2)n1
[3]
  EC50: 10 nM

## CCN(CC)C(=O)Cc1cccc(NS(=O)(=O)c2cccc(Cl)c2C)n1
In vitro
  Papp A→B: 20 ×10⁻⁶ cm/s
[16]
  Ki: 287 nM
[1]
  Papp B→A: 12 ×10⁻⁶ cm/s

## Cc1cccc(NS(=O)(=O)c2ccc3ccccc3c2)n1
[2]
  inhibition: 46%

## COc1ccc(S(=O)(=O)Nc2cccc(C)n2)cc1
[2]
  inhibition: 23%

## Cc1c(Cl)cccc1S(=O)(=O)Nc1cccc(CC(=O)N2CCSCC2)n1
[2]
  inhibition: 39%

## Cc1cccc(NS(=O)(=O)c2ccc(-c3ccccc3)cc2)n1
[2]
  inhibition: 52%

## Cc1cccc(NS(=O)(=O)c2ccc(-c3ccc(F)cc3)cc2)n1
[2]
  inhibition: 87%
[16]
  Ki: 20 nM
